From patent publication US4950669A, “Methods and compositions for promoting growth of animals” (priority 1987, dated 1990)

Key:
[1] = 28-day chicken growth study, feed or i.m. injection (Example XII); format: in vivo, chickens
Experimental: Portions of N-morpholinyl-β-benzoyl-propionamide were admixed with chicken feed at 1 mg/kg and a 2 mg/kg, respectively. Another portion was formulated into an injectable formulation at a concentration of 2% in polyethylene glycol. The N-morpholinyl-β-benzoylpropionamide was then administered to chickens, either by i.m. injection or in feed, over 28-day period. One group of controls received no medication, while another group of controls received Bacitracin MD in its feed at 30 g/ton. Those chickens receiving intramuscular injections were injected once a week with a dosage of either 1 mg/kg or 2 mg/kg, based on body weight. Birds were weighed on days 0, 14 and 28.

[2] = acute toxicity (LD50) in the mouse; format: in vivo; settings: for LD50: in vivo
[3] = 70-day lamb study, oral or i.m. injection (Example XVII); format: in vivo, lambs
Experimental: A 70-day study was conducted in which N-morpholinyl-β-benzoyl-propionamide was administered to lambs by i.m. injection or by admixture with feed. In the case of oral administration, the N-morpholinyl-β-benzoyl-propionamide was mixed with the complete mixed ration at a level of 30 ppm.

[4] = 44-day floor-pen study in chickens (Example XV); format: in vivo; settings: 44 days
Source text: There were 60 chickens per replication, 3 replications per treatment. One group of controls was unmedicated, while a second control group received Bacitracin in the feed at 30 g/ton.

[5] = 21-day battery study in chickens (Example XIII); format: in vivo
Experimental: N-morpholinyl-β-benzoyl-propionamide was admixed with chicken feed at concentrations of 1.0 ppm, 7.5 ppm and 15 ppm. A 21-day battery study was conducted with the NMBP-containing feed. One group of controls was unmedicated, while a second control group received Bacitracin MD in its feed at 30 g/ton. The birds were fed ad libitum and weighed on days 7, 14 and 21. There were 10 birds per replication, 4 replications in controls and 2 replications per drug treatment.

[6] = Injection 1 mg/kg i.m. once a week, Day 14
[7] = Injection 1 mg/kg i.m. once a week, Day 28
[8] = Injection 2 mg/kg i.m. once a week, Day 14
[9] = Injection 2 mg/kg i.m. once a week, Day 28
[10] = Injection, 1.5 mg/kg i.m. every 2 weeks
[11] = Injection, 1.5 mg/kg i.m. every 2 weeks, Day 0-14
[12] = Injection, 1.5 mg/kg i.m. every 2 weeks, Day 0-28
[13] = Injection, 1.5 mg/kg i.m. every 2 weeks, Day 0-42
[14] = Injection, 1.5 mg/kg i.m. every 2 weeks, Day 0-56
[15] = Injection, 1.5 mg/kg i.m. every 2 weeks, Day 0-70
[16] = Injection, 1.5 mg/kg i.m. every 2 weeks, Day 15-28
[17] = Injection, 1.5 mg/kg i.m. every 2 weeks, Day 29-42
[18] = Injection, 1.5 mg/kg i.m. every 2 weeks, Day 43-56
[19] = Injection, 1.5 mg/kg i.m. every 2 weeks, Day 57-70

In the case of `O=C(CCC(=O)N1CCOCC1)c1ccccc1` [NMBP, N-morpholinyl-β-benzoyl-propionamide], the “Average Weight” value ([1]; Feed 1 mg/kg, Day 0 (baseline)) is reported as 98.9 g, the “Average Weight” value ([1]; Feed 1 mg/kg, Day 14) is reported as 462.8 g and the “Feed Conversion” value ([1]; Feed 1 mg/kg, Day 14) is reported as 1.38. For the same compound, the “Weight Gain” value ([1]; Feed 1 mg/kg, Day 14) was 363.9 g, the “Average Weight” value ([1]; Feed 1 mg/kg, Day 28) was 947.6 g and the “Feed Conversion” value ([1]; Feed 1 mg/kg, Day 28) was 1.64. The “Weight Gain” value ([1]; Feed 1 mg/kg, Day 28) was 848.7 g, the “Average Weight” value ([1]; Feed 2 mg/kg, Day 0 (baseline)) was 98.5 g and the “Average Weight” value ([1]; Feed 2 mg/kg, Day 14) was 474.3 g. The “Feed Conversion” value ([1]; Feed 2 mg/kg, Day 14) was 1.38, the “Weight Gain” value ([1]; Feed 2 mg/kg, Day 14) was 375.8 g and the “Average Weight” value ([1]; Feed 2 mg/kg, Day 28) was 1013.5 g. For the same compound, the “Feed Conversion” value ([1]; Feed 2 mg/kg, Day 28) was 1.56, the “Weight Gain” value ([1]; Feed 2 mg/kg, Day 28) was 915.0 g and the “Average Weight” value ([1]; Injection 1 mg/kg i.m. once a week, Day 0 (baseline)) was 98.7 g. For the same compound, the “Average Weight” value [1, 6] was 460.6 g, the “Feed Conversion” value [1, 6] was 1.37 and the “Weight Gain” value [1, 6] was 361.9 g. For the same compound, the “Average Weight” value [1, 7] was 938.2 g, the “Feed Conversion” value [1, 7] was 1.61 and the “Weight Gain” value [1, 7] was 839.5 g. The “Average Weight” value ([1]; Injection 2 mg/kg i.m. once a week, Day 0 (baseline)) was 98.6 g, the “Average Weight” value [1, 8] was 456.3 g and the “Feed Conversion” value [1, 8] was 1.38. The “Weight Gain” value [1, 8] was 357.7 g, the “Average Weight” value [1, 9] was 971.4 g and the “Feed Conversion” value [1, 9] was 1.56. For the same compound, the “Weight Gain” value [1, 9] was 872.8 g, the “LD50, safe limits” value ([2]; i.p.) was 648 to 1363 mg/kg and the LD50 ([2]; ip) was 940 mg/kg. For the same compound, the LD50 ([2]; po, per os) was > 2000 mg/kg, the “weight loss of one lamb” value ([3]; Injection group, during the previous 2-week period, sacrificed on Day 55) was 10 pounds and the “Necropsy of one lamb” value ([3]; Injection group, one lamb sacrificed on Day 55) was “chronic focal pneumonia”. For the same compound, the “Daily Gain, Period” value [3, 10] was “.16 kilograms”, the “Weight, Final” value [3, 10] was 42.1 kilograms and the “Weight, Initial” value ([3]; Injection, 1.5 mg/kg i.m. every 2 weeks (baseline)) was 27.6 kilograms. The “Daily Feed DM Consumption, Cumulative” value [3, 11] was 0.94 kilograms, the “Daily Feed DM Consumption, Period” value [3, 11] was 0.94 kilograms and the “Daily Gain, Cumulative” value [3, 11] was “.23 kilograms”. The “Daily Gain, Period” value [3, 11] was “.23 kilograms”, the “Feed DM/Gain, Cumulative” value [3, 11] was 4.09 and the “Feed DM/Gain, Period” value [3, 11] was 4.09. For the same compound, the “Daily Feed DM Consumption, Cumulative” value [3, 12] was 1.00 kilograms, the “Daily Gain, Cumulative” value [3, 12] was “.22 kilograms” and the “Feed DM/Gain, Cumulative” value [3, 12] was 4.55. The “Daily Feed DM Consumption, Cumulative” value [3, 13] was 1.05 kilograms, the “Daily Gain, Cumulative” value [3, 13] was “.22 kilograms” and the “Feed DM/Gain, Cumulative” value [3, 13] was 4.77. The “Daily Feed DM Consumption, Cumulative” value [3, 14] was 1.06 kilograms, the “Daily Gain, Cumulative” value [3, 14] was “.22 kilograms” and the “Feed DM/Gain, Cumulative” value [3, 14] was 4.82. For the same compound, the “Daily Feed DM Consumption, Cumulative” value [3, 15] was 1.11 kilograms, the “Daily Gain, Cumulative” value [3, 15] was “.21 kilograms” and the “Feed DM/Gain, Cumulative” value [3, 15] was 5.29. For the same compound, the “Daily Feed DM Consumption, Period” value [3, 16] was 1.06 kilograms, the “Daily Gain, Period” value [3, 16] was “.21 kilograms” and the “Feed DM/Gain, Period” value [3, 16] was 5.05. The “Daily Feed DM Consumption, Period” value [3, 17] was 1.14 kilograms, the “Daily Gain, Period” value [3, 17] was “.22 kilograms” and the “Feed DM/Gain, Period” value [3, 17] was 5.18. The “Daily Feed DM Consumption, Period” value [3, 18] was 1.12 kilograms, the “Daily Gain, Period” value [3, 18] was “.22 kilograms” and the “Feed DM/Gain, Period” value [3, 18] was 5.09. The “Daily Feed DM Consumption, Period” value [3, 19] was 1.29 kilograms, the “Feed DM/Gain, Period” value [3, 19] was 8.06 and the “Daily Gain, Period” value ([3]; Oral, 30 ppm) was “.14 kilograms”. For the same compound, the “Weight, Final” value ([3]; Oral, 30 ppm) was 43.0 kilograms, the “Weight, Initial” value ([3]; Oral, 30 ppm (baseline)) was 28.1 kilograms and the “Daily Feed DM Consumption, Cumulative” value ([3]; Oral, 30 ppm, Day 0-14) was 1.05 kilograms. For the same compound, the “Daily Feed DM Consumption, Period” value ([3]; Oral, 30 ppm, Day 0-14) was 1.05 kilograms, the “Daily Gain, Cumulative” value ([3]; Oral, 30 ppm, Day 0-14) was “.27 kilograms” and the “Daily Gain, Period” value ([3]; Oral, 30 ppm, Day 0-14) was “.27 kilograms”. The “Feed DM/Gain, Cumulative” value ([3]; Oral, 30 ppm, Day 0-14) was 3.89, the “Feed DM/Gain, Period” value ([3]; Oral, 30 ppm, Day 0-14) was 3.89 and the “Daily Feed DM Consumption, Cumulative” value ([3]; Oral, 30 ppm, Day 0-28) was 1.10 kilograms. For the same compound, the “Daily Gain, Cumulative” value ([3]; Oral, 30 ppm, Day 0-28) was “.24 kilograms”, the “Feed DM/Gain, Cumulative” value ([3]; Oral, 30 ppm, Day 0-28) was 4.58 and the “Daily Feed DM Consumption, Cumulative” value ([3]; Oral, 30 ppm, Day 0-42) was 1.12 kilograms. The “Daily Gain, Cumulative” value ([3]; Oral, 30 ppm, Day 0-42) was “.23 kilograms”, the “Feed DM/Gain, Cumulative” value ([3]; Oral, 30 ppm, Day 0-42) was 4.87 and the “Daily Feed DM Consumption, Cumulative” value ([3]; Oral, 30 ppm, Day 0-56) was 1.14 kilograms. The “Daily Gain, Cumulative” value ([3]; Oral, 30 ppm, Day 0-56) was “.23 kilograms”, the “Feed DM/Gain, Cumulative” value ([3]; Oral, 30 ppm, Day 0-56) was 4.96 and the “Daily Feed DM Consumption, Cumulative” value ([3]; Oral, 30 ppm, Day 0-70) was 1.16 kilograms. The “Daily Gain, Cumulative” value ([3]; Oral, 30 ppm, Day 0-70) was “.21 kilograms”, the “Feed DM/Gain, Cumulative” value ([3]; Oral, 30 ppm, Day 0-70) was 5.52 and the “Daily Feed DM Consumption, Period” value ([3]; Oral, 30 ppm, Day 15-28) was 1.16 kilograms. For the same compound, the “Daily Gain, Period” value ([3]; Oral, 30 ppm, Day 15-28) was “.20 kilograms”, the “Feed DM/Gain, Period” value ([3]; Oral, 30 ppm, Day 15-28) was 5.80 and the “Daily Feed DM Consumption, Period” value ([3]; Oral, 30 ppm, Day 29-42) was 1.17 kilograms. For the same compound, the “Daily Gain, Period” value ([3]; Oral, 30 ppm, Day 29-42) was “.22 kilograms”, the “Feed DM/Gain, Period” value ([3]; Oral, 30 ppm, Day 29-42) was 5.32 and the “Daily Feed DM Consumption, Period” value ([3]; Oral, 30 ppm, Day 43-56) was 1.19 kilograms. The “Daily Gain, Period” value ([3]; Oral, 30 ppm, Day 43-56) was “.23 kilograms”, the “Feed DM/Gain, Period” value ([3]; Oral, 30 ppm, Day 43-56) was 5.17 and the “Daily Feed DM Consumption, Period” value ([3]; Oral, 30 ppm, Day 57-70) was 1.26 kilograms. The “Feed DM/Gain, Period” value ([3]; Oral, 30 ppm, Day 57-70) was 9.00, the “Average Live Bird Weight” value ([4]; feed 1.0 ppm) was 2.13 kg and the “Feed Conversion” value ([4]; feed 1.0 ppm) was 1.72. For the same compound, the “Average Live Bird Weight” value ([4]; feed 2.5 ppm) was 2.14 kg, the “Feed Conversion” value ([4]; feed 2.5 ppm) was 1.73 and the “Average Live Bird Weight” value ([4]; feed 5 ppm) was 2.08 kg. The “Feed Conversion” value ([4]; feed 5 ppm) was 1.75, the “Average Live Bird Weight” value ([4]; feed 10 ppm) was 2.14 kg and the “Feed Conversion” value ([4]; feed 10 ppm) was 1.72. The “Average Live Bird Weight” value ([4]; feed 20 ppm) was 2.12 kg, the “Feed Conversion” value ([4]; feed 20 ppm) was 1.72 and the “Average Live Bird Weight” value ([4]; feed 40 ppm) was 2.10 kg. The “Feed Conversion” value ([4]; feed 40 ppm) was 1.75, the “Average Live Bird Weight” value ([4]; feed 60 ppm) was 2.14 kg and the “Feed Conversion” value ([4]; feed 60 ppm) was 1.75. For the same compound, the F/G ([5]; feed 1 ppm, Day 7) was 1.38, the “Weight Gain” value ([5]; feed 1 ppm, Day 7) was 341 g and the F/G ([5]; feed 1 ppm, Day 14) was 1.47. The “Weight Gain” value ([5]; feed 1 ppm, Day 14) was 715 g, the F/G ([5]; feed 1 ppm, Day 21) was 1.62 and the “Weight Gain” value ([5]; feed 1 ppm, Day 21) was 1152 g. The F/G ([5]; feed 7.5 ppm, Day 7) was 1.40, the “Weight Gain” value ([5]; feed 7.5 ppm, Day 7) was 325 g and the F/G ([5]; feed 7.5 ppm, Day 14) was 1.49. The “Weight Gain” value ([5]; feed 7.5 ppm, Day 14) was 697 g, the F/G ([5]; feed 7.5 ppm, Day 21) was 1.60 and the “Weight Gain” value ([5]; feed 7.5 ppm, Day 21) was 1113 g. The F/G ([5]; feed 15 ppm, Day 7) was 1.42, the “Weight Gain” value ([5]; feed 15 ppm, Day 7) was 318 g and the F/G ([5]; feed 15 ppm, Day 14) was 1.47. For the same compound, the “Weight Gain” value ([5]; feed 15 ppm, Day 14) was 688 g, the F/G ([5]; feed 15 ppm, Day 21) was 1.54 and the “Weight Gain” value ([5]; feed 15 ppm, Day 21) was 1164 g.
